# Measured values from patent publication US20100279930A1, “HUMAN PANCREATIC POLYPEPTIDE (HPP) ANALOGUES AND THEIR EFFECTS ON FEEDING BEHAVIOUR” (priority 2007, published 2010).
# No end group written: not given here.
# Legend:
# [1] = injected intracerebroventricularly; cited from earlier work
# [2] = target: T1, Y5 receptor (Homo sapiens, UniProt Q15761); details: cited from earlier work
# T1 sequence (Q15761 1-445): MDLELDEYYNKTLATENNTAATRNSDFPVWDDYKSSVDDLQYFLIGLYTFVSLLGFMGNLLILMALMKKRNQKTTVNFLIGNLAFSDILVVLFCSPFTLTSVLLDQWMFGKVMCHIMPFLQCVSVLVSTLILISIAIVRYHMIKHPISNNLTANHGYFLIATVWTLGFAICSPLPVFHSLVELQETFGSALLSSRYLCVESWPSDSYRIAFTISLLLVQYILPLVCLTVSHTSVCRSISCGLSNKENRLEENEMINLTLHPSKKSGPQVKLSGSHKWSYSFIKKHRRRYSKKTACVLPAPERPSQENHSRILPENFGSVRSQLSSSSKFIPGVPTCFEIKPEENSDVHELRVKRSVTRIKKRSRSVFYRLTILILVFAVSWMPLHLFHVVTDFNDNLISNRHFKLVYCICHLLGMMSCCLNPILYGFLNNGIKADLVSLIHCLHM
# [3] = tested on: Male C57BL/6 mice; assay: In vivo food intake experiments in mice (half-life in the blood judged from appetite suppression); parameters: species or system mouse; details: comparator native human PP; judged from food intake reduction in mice (4-8 h, 0-24 h, 4:1 or 24:1 ratio)
# Protocol: In Vivo Food Intake Experiments
# Male C57BL/6 mice (20-30 g) were used for all mouse experiments. Mice were individually housed in IVC cages. Animals were randomized by weight and fasted overnight for 16 hrs before intraperitoneal injection at 9 am. All peptide solutions were prepared freshly the morning of the study and injected as 100 ul. Food intake was measured at 1, 2, 3, 4, 6, 8 and 24 hours post injection. The peptide was dosed at 30 nmol/kg, 50 nmol/kg, 100 nmol/kg, 120 nmol/kg, 150 nmol/kg, 300 nmol/kg, 600 nmol/kg or 1000 nmol/kg depending on the activity. In each case, a control of saline and a control of unmodified human Pancreatic Polypeptide was carried out. All statistics are calculated using a one-way ANOVA with Dunnett's post-test or one-way ANOVA with Bonferroni post-test.
# A control of saline was used.
# FIG. 2 and in the comparative graph of FIG. 3. […] It is hypothesized that that is as a possible result of stronger activity at the receptor and longer activity.
# The mouse is a good model for degradation rates in humans, irrespective of the fact that the receptors for PP in mice are different from the human receptor.
# [4] = target: human Y4 receptor (Homo sapiens, UniProt P50391); assay: Human Y Receptor-4 Displacement Assay; details: for binding to the Y4 receptor compared with code 6672: comparator compound of SEQ ID NO:72 (code 6672)
# Sequence of human Y4 receptor (P50391 whole entry): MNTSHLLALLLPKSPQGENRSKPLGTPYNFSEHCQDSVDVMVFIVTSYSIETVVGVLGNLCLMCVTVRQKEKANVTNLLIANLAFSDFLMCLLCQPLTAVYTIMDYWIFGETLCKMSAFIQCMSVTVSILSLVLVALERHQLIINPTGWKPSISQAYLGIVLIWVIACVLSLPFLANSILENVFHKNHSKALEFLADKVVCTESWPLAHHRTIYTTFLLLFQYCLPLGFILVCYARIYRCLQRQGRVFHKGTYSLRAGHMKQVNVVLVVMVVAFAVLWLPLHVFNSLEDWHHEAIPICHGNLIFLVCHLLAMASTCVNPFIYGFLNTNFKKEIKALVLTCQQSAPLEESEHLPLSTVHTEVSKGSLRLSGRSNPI
# Description: Human Y Receptor-4 Displacement Assay:
# The principle of the displacement assay is a fixed quantity of radiolabeled ligand competes with varying doses of a ‘cold’ (non-labelled) ligand for a limited number of receptor binding sites, enabling quantification of the affinity of the cold ligand to the receptor.
# The cDNA clone was transformed into competent E.coli so a larger preparation of DNA could be produced which was transfected into HEK-293T cells. Using antibiotics, cells expressing the transfected cDNA were selected for, and those cells containing the receptor plasmid were scaled up for a cell membrane preparation. Cells were harvested from culture flasks by scraping, and then homogenized and the membrane separated from other cellular material by differential centrifugation.
# For the displacement assay all reagents are prepared in displacement assay buffer (25 mM HEPES pH 7.4, 2 mM MgCl2, 4 mM CaCl2 1% BSA, 4 mM) containing protease inhibitors (2 mM phenylmethanesulphonylfluoride, 0.5 mM diprotin A and 0.5 mM phosphoramidon). One thousand counts/sec/tube ^I125PP (iodinated by the direct iodogen method) is used as the radiolabeled peptide, and the competing peptide is tested at varying concentrations between 10 uM and 0.02 pM, with each concentration tested in a minimum of duplicate. To each assay tube a volume of the prepared membrane, enough for total counts (where no competing peptide is present) of 10000-15000 counts/240 second is added. Reagents are added in the following order: buffer, label competing peptide and cell membrane, with a total volume is 500 μl.
# The assay is incubated at room temperature for 90 minutes before the receptor-^125PP complex is separated from free label by centrifugation at 15600 g for 3 minutes. The supernatant is removed and discarded and the pellet resuspended and washed with 500 μl fresh assay buffer and re-centrifuged. After centrifugation and removal of supernatant the radioactivity of the pellet was measured for 240 seconds using a γ-counter. Specific binding is calculated as the difference between the amount of ^125I-PP bound in the absence (total) and presence (non-specific) of unlabelled peptide. From the binding data, an IC50 for the competing peptide is calculated. Each peptide is tested on a minimum of two separate occasions.
# [5] = tested on: children with Prader-Willi syndrome; details: 100 pmol/kg/h for 90 minutes; cited from earlier work
# [6] = tested on: healthy volunteers; details: cited from earlier work
# [7] = tested on: mice; details: peripheral administration; cited from earlier work
substance,measurement,setting,value
"2-36[K^4, RYYSA^19-23]PP",effect on food intake,[1],strong stimulatory effect on food intake
same,affinity to the Y5-receptor,[2],strong affinity
6435 (KPLEPVYPGDNATPEQMAQYAADLRRYINMLTRPRY) [compound 6435],half-life in the blood compared with native human PP,[3],longer half-life
6674 (KPLEPVYPGDNATPEELNRYYASLRRYINMLTRPRY) [compound 6674],binding to the Y4 receptor compared with code 6672,[4],stronger binders
6675 (KPLEPVYPGDNATPEELNRYYASLRRYINMLTRPRY) [compound 6675],binding to the Y4 receptor compared with code 6672,[4],stronger binders
7215 (AAPLEPVYPGDNATPEQMAQYAAALRRYINKLTRPRY) [compound 7215],binding at the Y4 receptor compared with code 7214,[4]; comparator SEQ ID NO:167 (code 7214),still further better binding at the Y4 receptor
7218 (AAPLEPVYPGDNATPEQMAQYAADLRRYINKLTRPRY) [compound 7218],binding to the Y4 receptor compared with codes 6433 and 4055855,"[4]; comparators SEQ ID NO:9 (Ala 0, code 6433) and SEQ ID NO:281 (Lys 30, code 4055855)",binds the Y4 receptor better
4059668 (GAPLEPHFPGDNATPEEMAKYAAELRRYINKLTRPRY; synthetic hPP analogue peptide) [compound 4059668],half-life in the blood compared with native human PP,[3],longer half-life
Ala Pro Leu Glu Pro Val Tyr Pro Gly Asp Asn Ala Thr Pro Glu Gln Met Ala Gln Tyr Ala Ala Asp Leu Arg Arg Tyr Ile Asn Met Leu Thr Arg Pro Arg Tyr NH2 [native human PP],effect on appetite,[5],no effect on appetite
same,reduction in energy intake,[6]; infusion 5 pmol/kg/min (300 pmol/kg/h) for 90 minutes,11%
same,effect on appetite and food intake,[6]; infusion 10 pmol/kg/min (600 pmol/kg/h) for 90 minutes,reduce appetite and food intake
same,decrease in 24 hour cumulative energy intake,[6]; infusion 10 pmol/kg/min for 90 minutes,25%
[K^4]PP,effect on food intake,[1],strong stimulatory effect on food intake
same,affinity to the Y5-receptor,[2],strong affinity
[RYYSA^19-23]PP,effect on food intake,[1],strong stimulatory effect on food intake
same,affinity to the Y5-receptor,[2],strong affinity
"mouse PP: mouse Pancreatic Polypeptide, literature (APLEPMYPGDYATPEQMAQYETQLRRYINTLTRPRY; ends and bridges not checked; UniProt P10601 30-65, looked up)","effect on energy balance, food intake and energy expenditure",[7],induce a negative energy balance by decreasing food intake and stimulating energy expenditure
